Results from patent publication US11046699B2, “Pyrazolo-pyrimidin-amino-cycloalkyl compounds and their therapeutic uses” (RAPT THERAPEUTICS, INC., priority 2018, dated 2021).

Molecular target: GCN2 (Homo sapiens, UniProt Q9P2K8)
Test: GCN2 enzymatic endpoint assay: phosphorylation of GFP-eIF2α measured by TR-FRET (Lanthascreen)
Assay type: biochemical
Details: tested as described in Example 77; compound and/or hydrochloride, dihydrochloride or trifluoroacetic acid salt; read-out: IC 50 Activity
In short: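 Endpoint kinase reaction with 2 μM ATP and 80 nM GFP-labelled eIF2α substrate, run at room temperature for 90 min, then stopped with EDTA. Phospho-substrate detected by terbium-antibody TR-FRET, activity taken as the 520/495 nm emission ratio.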

Chain of GCN2 (Q9P2K8 whole entry): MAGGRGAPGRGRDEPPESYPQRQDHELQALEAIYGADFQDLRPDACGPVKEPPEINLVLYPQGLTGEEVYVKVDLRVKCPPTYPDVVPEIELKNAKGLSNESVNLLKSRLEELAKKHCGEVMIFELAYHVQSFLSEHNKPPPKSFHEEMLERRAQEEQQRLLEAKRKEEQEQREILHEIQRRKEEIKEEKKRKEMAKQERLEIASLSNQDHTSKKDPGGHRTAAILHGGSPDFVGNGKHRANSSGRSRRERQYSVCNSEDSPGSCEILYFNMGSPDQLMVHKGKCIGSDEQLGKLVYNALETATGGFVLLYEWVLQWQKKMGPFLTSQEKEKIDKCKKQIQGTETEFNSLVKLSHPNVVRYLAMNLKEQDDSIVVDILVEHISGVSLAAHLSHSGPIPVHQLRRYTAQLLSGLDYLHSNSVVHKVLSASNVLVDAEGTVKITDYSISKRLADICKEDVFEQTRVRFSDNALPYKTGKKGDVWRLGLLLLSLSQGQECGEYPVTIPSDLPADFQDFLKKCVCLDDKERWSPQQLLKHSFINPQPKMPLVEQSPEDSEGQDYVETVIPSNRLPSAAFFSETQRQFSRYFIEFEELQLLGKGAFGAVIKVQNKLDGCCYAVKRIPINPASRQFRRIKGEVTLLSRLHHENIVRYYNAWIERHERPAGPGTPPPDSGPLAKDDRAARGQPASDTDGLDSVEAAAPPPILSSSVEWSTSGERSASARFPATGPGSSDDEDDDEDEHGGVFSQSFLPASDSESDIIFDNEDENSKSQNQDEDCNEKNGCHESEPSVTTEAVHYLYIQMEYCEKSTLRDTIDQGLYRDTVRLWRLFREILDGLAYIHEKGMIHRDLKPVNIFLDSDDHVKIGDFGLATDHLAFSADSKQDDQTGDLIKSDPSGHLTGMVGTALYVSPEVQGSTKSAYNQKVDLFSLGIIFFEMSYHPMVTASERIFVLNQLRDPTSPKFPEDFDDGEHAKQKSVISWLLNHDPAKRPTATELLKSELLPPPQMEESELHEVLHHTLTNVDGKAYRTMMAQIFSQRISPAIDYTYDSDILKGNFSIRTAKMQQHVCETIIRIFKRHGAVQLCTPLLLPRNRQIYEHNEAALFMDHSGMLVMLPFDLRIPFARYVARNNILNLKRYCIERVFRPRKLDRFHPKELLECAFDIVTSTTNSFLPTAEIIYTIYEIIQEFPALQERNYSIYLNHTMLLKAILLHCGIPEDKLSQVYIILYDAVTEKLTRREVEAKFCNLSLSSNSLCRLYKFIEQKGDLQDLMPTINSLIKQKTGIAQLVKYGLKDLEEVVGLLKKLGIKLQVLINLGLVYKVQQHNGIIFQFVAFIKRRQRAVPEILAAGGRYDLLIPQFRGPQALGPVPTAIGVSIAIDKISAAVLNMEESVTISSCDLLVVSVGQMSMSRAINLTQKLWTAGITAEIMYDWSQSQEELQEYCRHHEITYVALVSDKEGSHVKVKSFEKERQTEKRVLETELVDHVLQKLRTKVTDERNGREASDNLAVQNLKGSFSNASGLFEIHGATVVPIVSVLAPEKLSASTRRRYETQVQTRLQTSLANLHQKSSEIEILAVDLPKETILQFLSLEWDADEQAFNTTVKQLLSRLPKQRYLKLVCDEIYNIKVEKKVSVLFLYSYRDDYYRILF

| IC50 [nM] | Structure (SMILES) |
| --- | --- |
| 25 to 200 | CNC(=O)[C@]1([C@@H](C)C#N)CC[C@@H](Nc2ncc3c(Br)nn(-c4ccc(-c5nnc(C)s5)cc4)c3n2)C1 [(1R,3R)-3-[[3-bromo-1-[4-(5-methyl-1,3,4-thiadiazol-2-yl)phenyl]pyrazolo [3,4-d]pyrimidin-6-yl]amino]-1-[(1R)-1-cyanoethyl]-N-methyl-cyclopentane-carboxamide] |
| 25 to 200 | CNC(=O)[C@]1([C@H](C)C#N)CC[C@@H](Nc2ncc3c(Br)nn(-c4ccc(-c5nnc(C)s5)cc4)c3n2)C1 [(1R,3R)-3-[[3-bromo-1-[4-(5-methyl-1,3,4-thiadiazol-2-yl)phenyl]pyrazolo [3,4-d]pyrimidin-6-yl]amino]-1-[(1S)-1-cyanoethyl]-N-methyl-cyclopentane-carboxamide] |
| 25 to 200 | Cc1nnc(-c2ccc(-n3nc(Br)c4cnc(N[C@@H]5CC[C@@](C)(C(=O)NCC(F)F)C5)nc43)cc2)s1 [(1R,3R)-3-[[3-bromo-1-[4-(5-methyl-1,3,4-thiadiazol-2-yl)phenyl]pyrazolo [3,4-d]pyrimidin-6-yl]amino]-N-(2,2-difluoroethyl)-1-methyl-cyclopentane-carboxamide] |
| 25 to 200 | COCCNC(=O)[C@]1(C)CC[C@@H](Nc2ncc3c(Br)nn(-c4ccc(-c5nnc(C)s5)cc4)c3n2)C1 [(1R,3R)-3-[[3-bromo-1-[4-(5-methyl-1,3,4-thiadiazol-2-yl)phenyl]pyrazolo [3,4-d]pyrimidin-6-yl]amino]-N-(2-methoxyethyl)-1-methyl-cyclopentane-carboxamide] |
| 25 to 200 | Cc1nnc(-c2ccc(-n3nc(Br)c4cnc(N[C@@H]5CC[C@@](C)(C(=O)NC6CC6)C5)nc43)cc2)s1 [(1R,3R)-3-[[3-bromo-1-[4-(5-methyl-1,3,4-thiadiazol-2-yl)phenyl]pyrazolo[3,4-d]pyrimidin-6-yl]amino]-N-cyclopropyl-1-methyl-cyclopentanecarboxamide] |
| 25 to 200 | CNC(=O)[C@]1(C)CC[C@@H](Nc2ncc3c(Br)nn(-c4ccc(-c5ncc(C)[nH]5)cc4)c3n2)C1 [(1R,3R)-3-[[3-bromo-1-[4-(5-methyl-1H-imidazol-2-yl)phenyl]pyrazolo[3,4-d]pyrimidin-6-yl]amino]-N,1-dimethyl-cyclopentanecarboxamide] |
| 25 to 200 | CNC(=O)[C@]1(C)CC[C@@H](Nc2ncc3c(Br)nn(-c4ccc(-c5nnc(C)[nH]5)cc4)c3n2)C1 [(1R,3R)-3-[[3-bromo-1-[4-(5-methyl-4H-1,2,4-triazol-3-yl)phenyl]pyrazolo[3,4-d]pyrimidin-6-yl]amino]-N,1-dimethyl-cyclopentanecarboxamide] |
| 25 to 200 | CNC(=O)[C@]1(C)CC[C@@H](Nc2ncc3c(Br)nn(-c4ccc(-n5nccc5C)cc4)c3n2)C1 [(1R,3R)-3-[[3-bromo-1-[4-(5-methyl-pyrazol-1-yl)phenyl]pyrazolo[3,4-d]pyrimidin-6-yl]amino]-N,1-dimethyl-cyclopentanecarboxamide] |
| 25 to 200 | CNC(=O)[C@]1(C)CC[C@@H](Nc2ncc3c(Br)nn(-c4ccc(-c5nnc(C(C)(C)C)o5)cc4)c3n2)C1 [(1R,3R)-3-[[3-bromo-1-[4-(5-tert-butyl-1,3,4-oxadiazol-2-yl)phenyl]pyrazolo[3,4-d]pyrimidin-6-yl]amino]-N,1-dimethyl-cyclopentane-carboxamide] |
| 25 to 200 | CNC(=O)[C@]1(C)CC[C@@H](Nc2ncc3c(Br)nn(-c4ccc(OCC#N)cc4)c3n2)C1 [(1R,3R)-3-[[3-bromo-1-[4-(cyanomethoxy)phenyl]pyrazolo[3,4-d]pyrimidin-6-yl]amino]-N,1-dimethyl-cyclopentane-carboxamide] |

Further lines, the molecule ahead of its results:

| Structure (SMILES) | IC50 [nM] |
| --- | --- |
| CNC(=O)[C@]1(C)CC[C@@H](Nc2ncc3c(Br)nn(-c4ccc(-c5cnn(C)c5)cc4)c3n2)C1 [(1R,3R)-3-[[3-bromo-1-[4-(1-methyl-pyrazol-4-yl)phenyl]pyrazolo[3,4-d]pyrimidin-6-yl]amino]-N,1-dimethyl-cyclopentanecarboxamide] | 25 to 200 |
| CNC(=O)[C@]1(C)CC[C@@H](Nc2ncc3c(Br)nn(-c4ccc5c(c4)OCC(=O)N5CCO)c3n2)C1 [(1R,3R)-3-[[3-bromo-1-[4-(2-hydroxy-ethyl)-3-oxo-1,4-benzoxazin-7-yl]pyrazolo[3,4-d]pyrimidin-6-yl]amino]-N,1-dimethyl-cyclopentanecarboxamide] | 25 to 200 |
| CNC(=O)[C@]1(C)CC[C@@H](Nc2ncc3c(Br)nn(-c4ccc(-c5cnc(C)o5)cc4)c3n2)C1 [(1R,3R)-3-[[3-bromo-1-[4-(2-methyloxazol-5-yl)phenyl]pyrazolo[3,4-d]pyrimidin-6-yl]amino]-N,1-dimethyl-cyclopentane-carboxamide] | 25 to 200 |
| CNC(=O)[C@]1(C)CC[C@@H](Nc2ncc3c(Br)nn(-c4ccc(-c5cncn5C)cc4)c3n2)C1 [(1R,3R)-3-[[3-bromo-1-[4-(3-methylimidazol-4-yl)phenyl]pyrazolo[3,4-d]pyrimidin-6-yl]amino]-N,1-dimethyl-cyclopentane-carboxamide] | 25 to 200 |
| CNC(=O)[C@]1(C)CC[C@@H](Nc2ncc3c(Br)nn(-c4ccc(C5=NOCC5)cc4)c3n2)C1 [(1R,3R)-3-[[3-bromo-1-[4-(4,5-dihydro-isoxazol-3-yl)phenyl]pyrazolo[3,4-d]pyrimidin-6-yl]amino]-N,1-dimethyl-cyclopentanecarboxamide] | 25 to 200 |
| CNC(=O)[C@]1(C)CC[C@@H](Nc2ncc3c(Br)nn(-c4ccc(C5=NCCO5)cc4)c3n2)C1 [(1R,3R)-3-[[3-bromo-1-[4-(4,5-dihydro-oxazol-2-yl)phenyl]pyrazolo[3,4-d]pyrimidin-6-yl]amino]-N,1-dimethyl-cyclopentanecarboxamide] | 25 to 200 |
| CNC(=O)[C@]1(C)CC[C@@H](Nc2ncc3c(Br)nn(-c4ccc(-c5cnn(C)c5C#N)cc4)c3n2)C1 [(1R,3R)-3-[[3-bromo-1-[4-(5-cyano-1-methyl-pyrazol-4-yl)phenyl]pyrazolo[3,4-d]pyrimidin-6-yl]amino]-N,1-dimethyl-cyclopentane-carboxamide] | 25 to 200 |
| CNC(=O)[C@]1(C)CC[C@@H](Nc2ncc3c(Br)nn(-c4ccc(-c5nnc(C6CC6)o5)cc4)c3n2)C1 [(1R,3R)-3-[[3-bromo-1-[4-(5-cyclopropyl-1,3,4-oxadiazol-2-yl)phenyl]pyrazolo[3,4-d]pyrimidin-6-yl]amino]-N,1-dimethyl-cyclopentane-carboxamide] | 25 to 200 |
| CCc1nnc(-c2ccc(-n3nc(Br)c4cnc(N[C@@H]5CC[C@@](C)(C(=O)NC)C5)nc43)cc2)s1 [(1R,3R)-3-[[3-bromo-1-[4-(5-ethyl-1,3,4-thiadiazol-2-yl)phenyl]pyrazolo[3,4-d]pyrimidin-6-yl]amino]-N,1-dimethyl-cyclopentanecarboxamide] | 25 to 200 |
| CNC(=O)[C@]1(C)CC[C@@H](Nc2ncc3c(Br)nn(-c4ccc(-c5nnc(C(C)C)o5)cc4)c3n2)C1 [(1R,3R)-3-[[3-bromo-1-[4-(5-isopropyl-1,3,4-oxadiazol-2-yl)phenyl]pyrazolo[3,4-d]pyrimidin-6-yl]amino]-N,1-dimethyl-cyclopentanecarboxamide] | 25 to 200 |
| CNC(=O)[C@]1(C)CC[C@@H](Nc2ncc3c(Br)nn(-c4ccc(-c5noc(C)n5)cc4)c3n2)C1 [(1R,3R)-3-[[3-bromo-1-[4-(5-methyl-1,2,4-oxadiazol-3-yl)phenyl]pyrazolo [3,4-d]pyrimidin-6-yl]amino]-N,1-dimethyl-cyclopentanecarboxamide] | 25 to 200 |
| CNC(=O)[C@]1(CC(F)F)CC[C@@H](Nc2ncc3c(Br)nn(-c4ccc(-c5nnc(C)o5)cc4)c3n2)C1 [(1R,3R)-3-[[3-bromo-1-[4-(5-methyl-1,3,4-oxadiazol-2-yl)phenyl]pyrazolo[3,4-d]pyrimidin-6-yl]amino]-1-(2,2-difluoroethyl)-N-methyl-cyclopentanecarboxamide] | 25 to 200 |
| CNC(=O)[C@]1(C)CC[C@@H](Nc2ncc3c(Br)nn(-c4ccc(-c5nnc(C)o5)cc4)c3n2)C1 [(1R,3R)-3-[[3-bromo-1-[4-(5-methyl-1,3,4-oxadiazol-2-yl)phenyl]pyrazolo[3,4-d]pyrimidin-6-yl]amino]-N,1-dimethyl-cyclo-pentanecarboxamide] | < 25 |
| CNC(=O)[C@@H]1CC[C@@H](Nc2ncc3c(Br)nn(-c4ccc(-c5nnc(C)o5)cc4)c3n2)C1 [(1R,3R)-3-[[3-bromo-1-[4-(5-methyl-1,3,4-oxadiazol-2-yl)phenyl]pyrazolo[3,4-d]pyrimidin-6-yl]amino]-N-methyl-cyclopentanecarboxamide] | 25 to 200 |
| CNC(=O)[C@]1(C)CC[C@@H](Nc2ncc3c(Br)nn(-c4ccc(-c5nnc(C)s5)c(CCN5CCOCC5)c4)c3n2)C1 [(1R,3R)-3-[[3-bromo-1-[4-(5-methyl-1,3,4-thiadiazol-2-yl)-3-(2-morpholino-ethyl)phenyl]pyrazolo[3,4-d]pyrimidin-6-yl]amino]-N,1-dimethyl-cyclo-pentanecarboxamide] | 25 to 200 |
| CNC(=O)[C@]1(C)CC[C@@H](Nc2ncc3c(Br)nn(-c4ccc(-c5nnc(C)s5)c(CC(O)C(F)(F)F)c4)c3n2)C1 (stereo partly drawn) [(1R,3R)-3-[[3-bromo-1-[4-(5-methyl-1,3,4-thiadiazol-2-yl)-3-(3,3,3-trifluoro-2-hydroxy-propyl)phenyl]pyrazolo[3,4-d]pyrimidin-6-yl]amino]-N,1-dimethyl-cyclopentane-carboxamide] | 25 to 200 |
| CNC(=O)[C@]1(C)CC[C@@H](Nc2ncc3c(Br)nn(-c4ccc(-c5nnc(C)s5)c(CCNCC(F)(F)F)c4)c3n2)C1 [(1R,3R)-3-[[3-bromo-1-[4-(5-methyl-1,3,4-thiadiazol-2-yl)-3-[2-(2,2,2-trifluoroethylamino)ethyl]phenyl]pyrazolo[3,4-d]pyrimidin-6-yl]amino]-N,1-dimethyl-cyclopentanecarboxamide] | 25 to 200 |
| CNC(=O)[C@]1(CO)CC[C@@H](Nc2ncc3c(Br)nn(-c4ccc(-c5nnc(C)s5)cc4)c3n2)C1 [(1R,3R)-3-[[3-bromo-1-[4-(5-methyl-1,3,4-thiadiazol-2-yl)phenyl]pyrazolo [3,4-d]pyrimidin-6-yl]amino]-1-(hydroxymethyl)-N-methyl-cyclo-pentanecarboxamide] | 25 to 200 |
